In US6524625B2, “Physiologically active extract obtained from indigo plant polygonum tinctorium” (Kabushiki Kaisha Hayashibara Seibutsu Kagaku Kenkyuto, priority 1998, dated 2003):
Values after ≈ are worked out from the molar mass of the structure shown.

Legend:
[1] = tested on: Bacillus cereus (IFO 3466); assay: Antiseptic action: MIC, agar plate dilution method; format: cell-based; conditions: Bacillus cereus, IFO3466, read-out: Minimum inhibitory concentration
[2] = tested on: Pseudomonas aeruginosa (IFO 3453); assay: Antiseptic action: MIC, agar plate dilution method; format: cell-based; conditions: Pseudomonas aeruginosa, IFO3453, read-out: Minimum inhibitory concentration
[3] = tested on: HL-60 cells, HGC-27 cells, HLC-1 cells; assay: Antitumor action, comparison over the tumor cells of Table 10; format: cell-based, human; conditions: from the 50% growth inhibitory concentrations of Table 10
From the text: Solutions in each well were serially diluted with a fresh preparation of the same RPMI1640 medium (pH 7.2) as used in the above.
HL-60 cells (ATCC CCL-240) derived from a patient with acute promyelocytic leukemia, HGC-27 cells (RCB0500) derived from a patient with gastric cancer, and HLC-1 cells (RCB0083) derived from a patient with lung adenocarcinoma were respectively suspended in fresh preparations of the same RPMI1640 medium (pH 7.2) as used in the above to give respective cell concentrations of 4×10^5 cells/ml, 4×10^5 cells/ml, and 2×10^6 cells/ml. Each cell suspension was distributed to a microplate in a volume of 50 μl/well and incubated at 37° C. for 48 hours in a 5 v/v % CO2 incubator. To each microplate, a 25 v/v % aqueous glutaraldehyde solution was added in a volume of 20 μl/well, and the microplate was allowed to stand for 15 min to fix the cells. Then, the cells adhered to the wells were washed with water, admixed with a 0.05 w/v % aqueous methylene blue solution in a volume of 100 μl/well, and further allowed to stand for 15 min to stain the cells. Thereafter, an excessive amount of the staining solution was removed from the wells by washing with water, and the cells were dried, admixed with 300 μl/well of 0.33 N hydrochloric acid, stirred sufficiently, and measured for absorption at a wavelength of 620 nm. […]

O=C1c2ccccc2-n2c1nc1ccccc1c2=O [Compound 1, 6,12-dihydro-6,12-dioxoindolo[2,1-b]quinazoline]
MIC [1]: 39 µg/mL (≈ 157 µM)
MIC [2]: 39 µg/mL (≈ 157 µM)
Antitumor action relative to Compound 2 [3]: ≥ 10 times
